# According to patent publication US11780832B2, “Lactivicin compounds, their preparation and use as antibacterial agents” (priority 2021, dated 2023):
# Like-named read-outs stand apart in the source and are kept apart here.
# Experiments:
# Type in all cases: cell-based
# [1] = tested on: Citrobacter freundii species complex Elevated AmpC; experiment: MIC against Elevated AmpC producing strains, compound alone; details: row r16
# Protocol: (§1) Gram-negative and Gram-positive bacterial strains used during the in vitro minimum inhibitory concentration (MIC) determination were obtained either from the American Type Culture Collection (ATCC) or from clinical specimens. All strains were characterized genotypically and the respective antibiotic resistance markers for each strain were identified.
# (§2) Isolates were sub-cultured onto appropriate media and stocked in skim milk at −80° C. Following two subcultures from frozen stock, in vitro antimicrobial susceptibility testing was performed using the Clinical and Laboratory Standards Institute (CLSI) broth microdilution method. Briefly, fresh cultures were suspended in culture media to give a final stock inoculum size of 5×10^7 colony forming units per milliliter of broth (CFU/mL). Test compounds were prepared at a stock solution concentration equal to 128 μg/mL, then diluted to give a final an initial working concentration of 32 μg/mL. 100 μL of the stock solutions were added to the first wells in a 96-well plate and were then diluted using a 2-fold dilution method to give a range of 32-0.025 μg/mL. 100 μL of the bacterial suspensions were then added to the 96-well plates to give a final working inoculum size of 5×10^5 CFU/mL. The final compound concentration range was 16-0.0125 μg/mL. […] MICs for comparator agents were determined using custom-designed, in-house prepared 96-well broth microdilution panels.
# [2] = tested on: Escherichia coli Elevated AmpC; experiment: as above
# Protocol: as §1, §2
# [3] = tested on: Enterobacter cloacae species complex Elevated AmpC; experiment: as above
# Protocol: as §1, §2
# [4] = tested on: Citrobacter freundii species complex OXA-181; experiment: MIC, CLSI broth microdilution
# In short: (§3)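 Each strain carries identified resistance markers and was drawn from ATCC or clinical specimens. Susceptibility is tested per CLSI broth microdilution at a final inoculum of 5×10^5 CFU/mL, over a final compound range of 16-0.0125 μg/mL.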
# [5] = tested on: Klebsiella pneumoniae OXA-163, OXA-1_OXA-30, SHV-1, TEM-1; experiment: MIC, CLSI broth microdilution
# In short: (§4)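 Two subcultures from frozen stock preceded testing. Final inoculum: 5×10^5 CFU/mL. Final compound concentrations: 16-0.0125 μg/mL, doubling dilutions, CLSI broth method.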
# [6] = tested on: Klebsiella pneumoniae SHV-12; experiment: MIC, CLSI broth microdilution
# In short: as §3
# [7] = tested on: Pseudomonas aeruginosa ATCC 27853; experiment: MIC, CLSI broth microdilution; details: ATCC27853
# In short: as §3
# [8] = tested on: Enterobacter cloacae species complex NDM-1; experiment: MIC, CLSI broth microdilution
# In short: as §3
# [9] = tested on: Klebsiella pneumoniae KPC-2; experiment: MIC, CLSI broth microdilution; details: KPC2
# In short: as §3
# [10] = tested on: Pseudomonas aeruginosa OprD negative; experiment: MIC, CLSI broth microdilution
# In short: as §4
# [11] = tested on: Pseudomonas aeruginosa AmpC overexpressed; experiment: MIC, CLSI broth microdilution
# In short: as §4
# [12] = tested on: Escherichia coli CMY-2; experiment: MIC, CLSI broth microdilution; details: CMY2
# In short: as §3
# [13] = tested on: Klebsiella pneumoniae OXA-48, SHV-1; experiment: MIC, CLSI broth microdilution
# In short: as §4
# [14] = tested on: Klebsiella pneumoniae KPC-3; experiment: MIC, CLSI broth microdilution
# In short: as §3
# [15] = tested on: Klebsiella aerogenes VIM-1, SHV-12; experiment: MIC, CLSI broth microdilution
# In short: as §3
# [16] = tested on: Escherichia coli SHV-12; experiment: MIC, CLSI broth microdilution; details: SHV12
# In short: as §3
# [17] = tested on: Klebsiella oxytoca KPC-2, TEM-1; experiment: MIC, CLSI broth microdilution
# In short: as §3
# [18] = tested on: Escherichia coli ATCC 25922; experiment: MIC, CLSI broth microdilution; details: ATCC25922
# In short: as §3
# [19] = tested on: Klebsiella pneumoniae CMY-DHA; experiment: Synergistic activity: MIC in the presence of Avibactam; details: row r32, in the presence of Avibactam @ 4 μg/mL
# Protocol: as §2
# (§5) The same method used to test the activity of the claimed compounds was used to determine their synergistic activity when combined with a β-lactamase inhibitor except that either a fixed concentration or fixed ratio of a β-lactamase inhibitor was added to the 96-well plates prior to adding the bacteria cultures. Synergistic activity was defined as the reduction of MIC of a given compound when tested using the β-lactamase inhibitor versus testing the compound in the absence of a β-lactamase inhibitor.
# [20] = tested on: Citrobacter freundii species complex Elevated AmpC; experiment: as above; details: row r16, in the presence of Avibactam @ 4 μg/mL
# Protocol: as §2, §5
# [21] = tested on: Proteus mirabilis CMY-DHA; experiment: as above; details: row r36, in the presence of Avibactam @ 4 μg/mL
# Protocol: as §2, §5
# [22] = tested on: Escherichia coli CMY-DHA; experiment: as above
# Protocol: as §2, §5
# [23] = tested on: Escherichia coli Elevated AmpC; experiment: as above
# Protocol: as §2, §5
# [24] = tested on: Enterobacter cloacae species complex Elevated AmpC; experiment: as above
# Protocol: as §2, §5
# [25] = strain of row r26, in the presence of Avibactam @ 4 μg/mL
# [26] = strain of row r27, in the presence of Avibactam @ 4 μg/mL
# [27] = strain of row r28, in the presence of Avibactam @ 4 μg/mL
# [28] = strain of row r29, in the presence of Avibactam @ 4 μg/mL
# [29] = strain of row r30, in the presence of Avibactam @ 4 μg/mL
# [30] = strain of row r31, in the presence of Avibactam @ 4 μg/mL
# [31] = strain of row r34, in the presence of Avibactam @ 4 μg/mL
# [32] = strain of row r35, in the presence of Avibactam @ 4 μg/mL
# [33] = strain of row r10, in the presence of Avibactam @ 4 μg/mL
# [34] = strain of row r11, in the presence of Avibactam @ 4 μg/mL
# [35] = strain of row r12, in the presence of Avibactam @ 4 μg/mL
# [36] = strain of row r13, in the presence of Avibactam @ 4 μg/mL
# [37] = strain of row r14, in the presence of Avibactam @ 4 μg/mL
# [38] = strain of row r15, in the presence of Avibactam @ 4 μg/mL
# [39] = in the presence of Avibactam @ 4 μg/mL
# [40] = strain of row r7, in the presence of Avibactam @ 4 μg/mL
# [41] = strain of row r20, in the presence of Avibactam @ 4 μg/mL
smiles,measurement,setting,value
"Nc1nc(/C(=N/OC2(C(=O)O)CCOCC2)C(=O)N[C@H]2CON(C3(C(=O)O)C[C@H](N4C(=O)c5cc(O)c(O)cc5C4=O)C(=O)O3)C2=O)cs1 (stereo partly drawn) [Cmpd 8, 4-({(Z)-[1-(2-amino-1,3-thiazol-4-yl)-2-({(4S)-2-[(4S)-2-carboxy-4-(5,6-dihydroxy-1,3-dioxo-1,3-dihydro-2H-isoindol-2-yl)-5-oxooxolan-2-yl]-3-oxo-1,2-oxazolidin-4-yl}amino)-2-oxoethylidene]amino}oxy)oxane-4-carboxylic acid]",MIC,[1],0.25 µg/mL
same,MIC,[2]; strain of row r10,0.015 µg/mL
same,MIC,[2]; strain of row r11,0.12 µg/mL
same,MIC,[2]; strain of row r12,0.25 µg/mL
same,MIC,[2]; strain of row r13,0.03 µg/mL
same,MIC,[2]; strain of row r14,0.06 µg/mL
same,MIC,[2]; strain of row r15,0.12 µg/mL
same,MIC,[3],0.5 µg/mL
same,MIC,[3]; strain of row r7,2 µg/mL
same,MIC,[3]; strain of row r20,0.12 µg/mL
same,MIC,[4]; Citrobacter freundii,0.0149 µg/mL
same,MIC,[5],0.06 µg/mL
same,MIC,[6]; SHV12,0.0149 µg/mL
same,MIC,[7],0.12 µg/mL
same,MIC,[8],0.25 µg/mL
same,MIC,[9],0.12 µg/mL
same,MIC,[10],0.12 µg/mL
same,MIC,[11],0.5 µg/mL
same,MIC,[12],1 µg/mL
same,MIC,[13],0.0149 µg/mL
same,MIC,[14]; KPC3,0.0149 µg/mL
same,MIC,[15],2 µg/mL
same,MIC,[16],1 µg/mL
same,MIC,[17],0.0149 µg/mL
same,MIC,[18],0.06 µg/mL
same,MIC,[19],0.25 µg/mL
same,MIC,[20],0.03 µg/mL
same,MIC,[21],0.5 µg/mL
same,MIC,[22]; [25],0.03 µg/mL
same,MIC,[22]; [26],<=0.008 μg/mL
same,MIC,[22]; [27],<=0.008 μg/mL
same,MIC,[22]; [28],0.06 µg/mL
same,MIC,[22]; [29],<=0.008 μg/mL
same,MIC,[22]; [30],0.06 µg/mL
same,MIC,[22]; [31],0.015 µg/mL
same,MIC,[22]; [32],<=0.008 μg/mL
same,MIC,[23]; [33],<=0.008 μg/mL
same,MIC,[23]; [34],0.03 µg/mL
same,MIC,[23]; [35],0.03 µg/mL
same,MIC,[23]; [36],<=0.008 μg/mL
same,MIC,[23]; [37],<=0.008 μg/mL
same,MIC,[23]; [38],0.06 µg/mL
same,MIC,[24]; [39],0.06 µg/mL
same,MIC,[24]; [40],0.12 µg/mL
same,MIC,[24]; [41],<=0.008 μg/mL
"Nc1nc(/C(=N/OC2(C(=O)O)CCC(F)(F)CC2)C(=O)N[C@H]2CON(C3(C(=O)O)C[C@H](N4C(=O)c5cc(O)c(O)cc5C4=O)C(=O)O3)C2=O)cs1 (stereo partly drawn) [Cmpd 10, (4S)-2-[(4S)-4-{[(2Z)-2-(2-amino-1,3-thiazol-4-yl)-2-{[(1-carboxy-4,4-difluorocyclohexyl)oxy]imino}acetyl]amino}-3-oxo-1,2-oxazolidin-2-yl]-4-(5,6-dihydroxy-1,3-dioxo-1,3-dihydro-2H-isoindol-2-yl)-5-oxooxolane-2-carboxylic acid]",MIC,[1],0.25 µg/mL
same,MIC,[2]; strain of row r10,0.015 µg/mL
same,MIC,[2]; strain of row r11,0.12 µg/mL
same,MIC,[2]; strain of row r12,0.12 µg/mL
same,MIC,[2]; strain of row r13,0.03 µg/mL
same,MIC,[2]; strain of row r14,0.03 µg/mL
same,MIC,[2]; strain of row r15,0.25 µg/mL
same,MIC,[3],0.5 µg/mL
same,MIC,[3]; strain of row r7,4 µg/mL
same,MIC,[3]; strain of row r20,0.12 µg/mL
same,MIC,"[4]; Citrobacter freundii species complex, OXA-181, read-out: MIC",≤ 0.015 µg/mL
same,MIC,[5],0.06 µg/mL
same,MIC,"[6]; SHV12, SHV-12, read-out: MIC",≤ 0.015 µg/mL
same,MIC,[7],0.12 µg/mL
same,MIC,[8],2 µg/mL
same,MIC,[9],0.03 µg/mL
same,MIC,[10],0.25 µg/mL
same,MIC,[11],2 µg/mL
same,MIC,[12],1 µg/mL
same,MIC,[13],≤ 0.015 µg/mL
same,MIC,"[14]; KPC3, KPC-3, read-out: MIC",0.06 µg/mL
same,MIC,[15],0.12 µg/mL
same,MIC,[16],2 µg/mL
same,MIC,"[17]; KPC-2, TEM-1, read-out: MIC",≤ 0.015 µg/mL
same,MIC,[18],0.12 µg/mL
same,MIC,[19],0.25 µg/mL
same,MIC,[20],0.03 µg/mL
same,MIC,[21],0.5 µg/mL
same,MIC,[22]; [25],0.06 µg/mL
same,MIC,[22]; [26],<=0.008 μg/mL
same,MIC,[22]; [27],0.03 µg/mL
same,MIC,[22]; [28],0.06 µg/mL
same,MIC,[22]; [29],<=0.008 μg/mL
same,MIC,[22]; [30],0.06 µg/mL
same,MIC,[22]; [31],0.015 µg/mL
same,MIC,[22]; [32],0.015 µg/mL
same,MIC,[23]; [33],<=0.008 μg/mL
same,MIC,[23]; [34],0.03 µg/mL
same,MIC,[23]; [35],0.03 µg/mL
same,MIC,[23]; [36],<=0.008 μg/mL
same,MIC,[23]; [37],<=0.008 μg/mL
same,MIC,[23]; [38],0.06 µg/mL
same,MIC,[24]; [39],0.06 µg/mL
same,MIC,[24]; [40],0.12 µg/mL
same,MIC,[24]; [41],<=0.008 μg/mL
